The text below walks through data of US10526325B2, “Bicyclic heterocyclic derivatives” (Merck Patent GmbH, priority 2015, dated 2020).

What is called IC50 is the concentration needed to halve the response being measured. As a reminder, the Kd is the free concentration of one partner at which half of the binding sites on the other are occupied at equilibrium, for simple one-to-one binding. High values mean lower affinity, low ones higher affinity.

In one test the target is PDHK2 (Homo sapiens (Human), UniProt Q15119). The test is described as follows: Biochemical activity testing of PDHK2: PDC inactivation assay. Particulars: human rec PDHK2, porcine heart PDC, 5 μM ATP, read-out: IC50 PDHK2 (enzyme assay). The text has this:
Biochemical Activity Testing of PDHK2: PDC Inactivation Assay
The biochemical activity assay for PDHK2 is based on the inactivation of PDC through phosphorylation by PDHK2. The assay is run in two steps: the enzymatic PDHK2 reaction in which isolated PDC is phosphorylated by PDHK2 with ATP as co-substrate and the PDC activity assay in which pyruvate and NAD are converted to acetyl-CoA and NADH. The PDC activity correlates to the increase in NADH and thereby is detectable directly via the increasing fluorescence signal (Exc 340 nm, Em 450 nm). Inhibition of PDHK2 results in a lower phosphorylation status and thereby a less decrease in activity of PDC and a stronger increase in NADH fluorescence signal.
The PDC inactivation assay is performed in Greiner 384-well microtiter plates and is used for high throughput screen. 4 μl of PDHK2 (human, rec, Carna Bioscience, 10 ng/μl-137 nM final concentration) and PDC (isolated from porcine heart, Sigma-Aldrich, 20 mU/ml final concentration) are incubated in the absence or presence of the test compound (10 dilution concentrations) for 30 min at room temperature in kinase buffer (15 mM potassium phosphate buffer, pH 7.0, 60 mM KCl, 1.5 mM DTT, 2.5 mM MgCl2, 0.0125% (w/v) BSA, 0.125% Pluronic F-68). The kinase reaction is started by the addition of 4 μl ATP substrate solution (fc 5 μM in kinase buffer). After 30 min incubation at 37° C. 40 μl of PDC reaction solution (100 mM Tris/HCl, pH 7.8, 0.5 mM EDTA, 1 mM MgCl2, 50 mM NaF, 0.25 mM Coenzyme A, 5 mM pyruvate, 1 mM NAD, 5 mM DTT, 1 mM thiamine pyrophosphate) is added. The first fluorescence measurement is performed on a Perkin Elmer Envision (Exc 340 nm, Em 450 nm). The reaction is incubated for 45 min at room temperature. Afterwards a second fluorescence measurement is performed and the PDC activity is calculated by the difference between both measurements. As full value for the PDHK2 assay the inhibitor-free PDHK2 reaction is used. The pharmacological zero value used is DCA (Sigma-Aldrich) in a final concentration of 3 mM. The inhibitory values […] were determined using either the program Symyx Assay Explorer® or Condosseo® from GeneData.

A further test addresses human PDHK2 (12-407) (Homo sapiens (Human), UniProt Q15119). The test is described as follows: Isothermal titration calorimetry (ITC) binding. Particulars: ITC at 30° C., pH 7.5. On the procedure: Isothermal Titration Calorimetry
ITC measurements were performed with a VP-ITC micro calorimeter (Microcal, LLC/GE Healthcare Bio-Sciences Aft Uppsala, Sweden). In general titrations were performed by titrating the protein (50 μM) to the test compound (5 μM) in 12 μl injections. All binding experiments were carried out at 30° C. In general the test compounds were diluted form DMSO stock solutions into the measurement buffer with a maximum final concentration of 1% DMSO. The measurement buffer was 20 mM HEPES, 135 mM KCl, 1 mM TCEP, 2 mM MgCl2, 15 mM NaH2PO4, pH 7.5. The human PDHK2 (12-407) was produced in E. coli as his-tagged protein and purified by affinity chromatography. The tag was removed by side specific proteolysis. Before titration the protein buffer was changed to the measurement buffer containing the same DMSO concentration as the test compound dilution. ITC data analysis was performed using Origin 7 calorimetry software from the same supplier. For most measurements a binding model of one binding site was assumed. According to the applied mathematical model it is possible to calculate the binding constant (KA), the observed binding enthalpy (ΔH^obs) as well as the stoichiometry (N) of the formed complex.
Preceding analysis the raw data was corrected for the heats of dilution by extrapolating from the saturation value from the end of titration. In order to allow for direct comparison between the respective experimental series and protein preparations the protein concentration was corrected by referencing titrations to a well behaved standard inhibitor. The apparent stoichiometry values defined the fraction of binding competent protein and compensated for relative errors in protein concentration measurements. This corrected protein concentration was used to set up ITC experiment series with test compounds. Any deviations from ideal 1:1 stoichiometry observed here were attributed to errors in compound concentration. This nominal compound concentration was corrected as well to achieve 1:1 stoichiometry in the fit.
A general note: ITC needs no label: the signal is the heat of the interaction.

The subject of test [1] is PDH-E1alpha (pSer300) in HEK293T cells. The test can be described thus: Cellular immunofluorescence assay, PDH-E1alpha (pSer300) in HEK293T cells. It is filed as cell-based, human. To be noted: Homo sapiens, HEK-293T, 5 hours incubation, anti-PDH-E1alpha (pSer300) immunofluorescence, read-out: IC50 (cell data). Here is the method:
Cellular Assay for Determination of Compound Activities
Compound activities were determined in a cellular immunofluorescence assay. Human HEK293T cells were seeded into black 384-well plates with clear bottom and grown overnight.
Next day, test compounds were added to the wells and the plates incubated for 5 hours. Following this, cells were fixed with formaldehyde, permeabilised and blocked. The primary antibody, Anti-PDH-E1alpha (pSer300), AP1064 (Merck Millipore) was added and incubated overnight in the plate wells. Next, cells were washed and the secondary antibody, Alexa Fluor 488, goat anti-rabbit ab (A-11008, Invitrogen) was added together with Hoechst 33258 (H3569, Invitrogen) and incubated for 1 hour in the plate wells. Finally, cells were washed and the plates were measured on the laser scanning cytometer acumen hci (TTpLabtech).
The raw data were normalized against a pharmacological inhibitor control and dose response curves were generated by plotting the percent effect values using the software package Genedata screener (Genedata).

As for `C[C@@](O)(C(=O)N1CCc2nn(-c3ccc(Cl)cc3)cc2C1)C(F)(F)F` [Compound A2, (2R)-1-[2-(4-chlorophenyl)-6,7-dihydro-4H-pyrazolo[4,3-c]pyridin-5-yl]-3,3,3-trifluoro-2-hydroxy-2-methyl-propan-1-one], the IC50 on PDHK2 is 3 to 50 µM. The Kd at human PDHK2 (12-407) was 0.3 to 3 µM.
`C[C@H]1CN(C(=O)[C@@](C)(O)C(F)(F)F)Cc2cnn(-c3ccc(F)cc3)c21` [Compound A15, (R)-3,3,3-Trifluoro-1-[(S)-1-(4-fluoro-phenyl)-7-methyl-1,4,6,7-tetrahydro-pyrazolo[4,3-c]pyridin-5-yl]-2-hydroxy-2-methyl-propan-1-one]: the half-maximal inhibitory concentration (IC50) (on PDHK2; in test [1]) was 0.3 to 3 µM in each case.
As to `C[C@H]1CN(C(=O)[C@@](C)(O)C(F)(F)F)Cc2cnn(-c3ccc(F)cc3F)c21` [Compound A21, (R)-1-[(S)-1-(2,4-Difluoro-phenyl)-7-methyl-1,4,6,7-tetrahydro-pyrazolo[4,3-c]pyridin-5-yl]-3,3,3-trifluoro-2-hydroxy-2-methyl-propan-1-one], the IC50 on PDHK2 was 0.3 to 3 µM.
With `C[C@H]1CN(C(=O)[C@@](C)(O)C(F)(F)F)Cc2cnn(C(C)(C)C)c21` [Compound A23, (R)-1-((S)-1-tert-Butyl-7-methyl-1,4,6,7-tetrahydro-pyrazolo[4,3-c]pyridin-5-yl)-3,3,3-trifluoro-2-hydroxy-2-methyl-propan-1-one], the half-inhibitory concentration (IC50) at PDHK2 was 3 to 50 µM.
In the case of `C[C@H]1CN(C(=O)[C@@](C)(O)C(F)(F)F)Cc2cnn(-c3ccccc3F)c21` [Compound A25, (R)-3,3,3-Trifluoro-1-[(S)-1-(2-fluoro-phenyl)-7-methyl-1,4,6,7-tetrahydro-pyrazolo[4,3-c]pyridin-5-yl]-2-hydroxy-2-methyl-propan-1-one], the concentration for half-maximal inhibition (IC50) at PDHK2 was 0.3 to 3 µM.
Still for that read-out and setting: then `C[C@@H]1CN(C(=O)[C@@](C)(O)C(F)(F)F)Cc2cnn(-c3ccccc3C#N)c21` [Compound A26, 2-[(R)-7-Methyl-5-((R)-3,3,3-trifluoro-2-hydroxy-2-methyl-propionyl)-4,5,6,7-tetrahydro-pyrazolo[4,3-c]pyridin-1-yl]-benzonitrile], with 3 to 50 µM; and `C[C@H]1CN(C(=O)[C@@](C)(O)C(F)(F)F)Cc2cnn(-c3ccccc3C#N)c21` [Compound A27, 2-[(S)-7-Methyl-5-((R)-3,3,3-trifluoro-2-hydroxy-2-methyl-propionyl)-4,5,6,7-tetrahydro-pyrazolo[4,3-c]pyridin-1-yl]-benzonitrile], with 0.3 to 3 µM.
On to `C[C@H]1CN(C(=O)[C@@](C)(O)C(F)(F)F)Cc2cn[nH]c21` [Compound A29, (R)-3,3,3-Trifluoro-2-hydroxy-2-methyl-1-((S)-7-methyl-1,4,6,7-tetrahydro-pyrazolo[4,3-c]pyridin-5-yl)-propan-1-one], for which the IC50 at PDHK2 fell in the range of 0.3 to 3 µM. In addition, at human PDHK2 (12-407), the Kd was in the range of 0.3 to 3 µM.
Take `C[C@H]1CN(C(=O)[C@@](C)(O)C(F)(F)F)Cc2cnn(-c3ncccc3F)c21` [Compound A33, (R)-3,3,3-Trifluoro-1-[(S)-1-(3-fluoro-pyridin-2-yl)-7-methyl-1,4,6,7-tetrahydro-pyrazolo[4,3-c]pyridin-5-yl]-2-hydroxy-2-methyl-propan-1-one]: the 50% inhibitory concentration (IC50) at PDHK2 fell in the range of 3 to 50 µM.
Regarding `C[C@H]1CN(C(=O)[C@@](C)(O)C(F)(F)F)Cc2cnn(-c3ncc(F)cc3F)c21` [Compound A35, (R)-1-[(S)-1-(3,5-Difluoro-pyridin-2-yl)-7-methyl-1,4,6,7-tetrahydro-pyrazolo[4,3-c]pyridin-5-yl]-3,3,3-trifluoro-2-hydroxy-2-methyl-propan-1-one], the IC50 at PDHK2 is 0.3 to 3 µM.
On the same count and under the same terms, then `COc1ncc(F)c(-n2ncc3c2[C@H](C)CN(C(=O)[C@@](C)(O)C(F)(F)F)C3)n1` [Compound A36, (R)-3,3,3-Trifluoro-1-[(R)-1-(5-fluoro-2-methoxy-pyrimidin-4-yl)-7-methyl-1,4,6,7-tetrahydro-pyrazolo[4,3-c]pyridin-5-yl]-2-hydroxy-2-methyl-propan-1-one], with 0.3 to 3 µM; and `C[C@H]1CN(C(=O)[C@@](C)(O)C(F)(F)F)Cc2cnn(C3CCC(O)CC3)c21` (stereo partly drawn) [Compound A39, (R)-3,3,3-Trifluoro-2-hydroxy-1-[(S)-1-(4-hydroxy-cyclohexyl)-7-methyl-1,4,6,7-tetrahydro-pyrazolo[4,3-c]pyridin-5-yl]-2-methyl-propan-1-one], with 0.3 to 3 µM; and `C[C@H]1CN(C(=O)[C@@](C)(O)C(F)(F)F)Cc2cnn(-c3ccc(F)cn3)c21` [Compound A41, (R)-3,3,3-Trifluoro-1-[(S)-1-(5-fluoro-pyridin-2-yl)-7-methyl-1,4,6,7-tetrahydro-pyrazolo[4,3-c]pyridin-5-yl]-2-hydroxy-2-methyl-propan-1-one], with 3 to 50 µM.
Turning to `C[C@@H]1CN(C(=O)C(C)(C)O)Cc2cnn(-c3ccc(F)cc3)c21` [Compound A42, 1-[(R)-1-(4-Fluoro-phenyl)-7-methyl-1,4,6,7-tetrahydro-pyrazolo[4,3-c]pyridin-5-yl]-2-hydroxy-2-methyl-propan-1-one], the IC50 at PDHK2 lay within 0.3 to 3 µM. The Kd on human PDHK2 (12-407) was < 0.3 µM.
For `C[C@@](O)(C(=O)N1CCn2c(nnc2-c2ccccc2)C1)C(F)(F)F` [Compound A48, (R)-3,3,3-Trifluoro-2-hydroxy-2-methyl-1-(3-phenyl-5,6-dihydro-8H-[1,2,4]triazolo[4,3-a]pyrazin-7-yl)-propan-1-one] the same measures were 0.3 to 3 µM and < 0.3 µM.
`C[C@H]1CN(C(=O)[C@@](C)(O)C(F)(F)F)Cc2cnc(-c3ccc(F)cc3)n21` [Compound A53, (R)-3,3,3-Trifluoro-1-[(S)-3-(4-fluoro-phenyl)-5-methyl-5,6-dihydro-8H-imidazo[1,5-a]pyrazin-7-yl]-2-hydroxy-2-methyl-propan-1-one]: the IC50 at PDHK2 lay within 3 to 50 µM.
Same read-out and setting: with `C[C@H]1CN(C(=O)[C@@](C)(O)C(F)(F)F)Cc2cnc(-c3ccc(F)cc3F)n21` [Compound A55, (R)-1-[(S)-3-(2,4-Difluoro-phenyl)-5-methyl-5,6-dihydro-8H-imidazo[1,5-a]pyrazin-7-yl]-3,3,3-trifluoro-2-hydroxy-2-methyl-propan-1-one] the figure was 0.3 to 3 µM.
The same measure, in the same setting: then `C[C@H]1CN(C(=O)[C@@](C)(O)C(F)(F)F)Cc2cnc(-c3ncc(F)cc3F)n21` [Compound A56, (R)-1-[(S)-3-(3,5-Difluoro-pyridin-2-yl)-5-methyl-5,6-dihydro-8H-imidazo[1,5-a]pyrazin-7-yl]-3,3,3-trifluoro-2-hydroxy-2-methyl-propan-1-one], with 3 to 50 µM.
